Tests used:
Format in all cases: biochemical
BTK C481S = target: T1, BTK C481S (Homo sapiens, UniProt Q06187, C481S); assay: Kinase activity inhibition assay (HTRF TK Kit)
T1 construct: purchased Carna 08-547
From the text: (§1) In this assay, the HTRF TK Kit (Catalog No. 62TK0PEC) provided by Cisbio was used to detect the inhibitory activity of compounds on BTK kinase, BTK T474I kinase and BTK C481 S kinase and the selectivity of compounds relative to EGFR, ITK and TEC kinases.
(§2) Reagents and consumables: BTK kinase (Invitrogen, Catalog No. PV3587), BTK C481S (Carna, Product No. 08-547), BTK T474I(SignalChem Product No. B10-12HH), ITK (Cama, Product No. 08-181), EGFR (Cama, Product No. 08-115), TEC (Carna, Product No. 08-182), HTRF-TK kit (Cisbio, Product No. 62TK0PEC), MgCl2 (Sigma, Product No. M1028), MnCl2 (Sigma, Product No. M1787), DTT (Sigma, Product No. D0632), ATP (Sigma, Product No. A7699-1g), DMSO (Sigma, Product No. D2650), 384-well plate (PE, Product No. 6008280).
(§3) The entire operation steps were carried out on ice, and the total reaction volume was 10µL. A compound (4µL), substrate and ATP (4µL), and kinase (2µL) were added in sequence to a 384-well plate, and the plate was shaken for 30 seconds. The mixture was reacted at room temperature for an appropriate time, and then the detection reagent was added. The resulting mixture was reacted at room temperature for 1 hour, and then the plate was assayed with a microplate reader. The specific steps were as follows: • a) a 1 × kinase buffer solution required for the kinase assay was calculated according to the amount of the test compound, and prepared as needed; • b) 2.5 × working concentration of a compound was prepared, 100-fold gradient concentration solutions of a compound were diluted by 40 × to the desired concentration, respectively, mixed well, and added to each well at 4 µL per well; • c) 5 × working concentration of the substrate and ATP were prepared, mixed in a ratio of 1:1 before being added to the 384-well plate, and added to each well at 4 µL per well; • d) 5 × working concentration of a kinase was prepared, 2 µL of which was added to each well; • e) the plate was shaken on a microplate shaker for 30 seconds, sealed with a sealing membrane, and the mixture was reacted at room temperature for an appropriate time; • f) 4 × working concentration of streptavidin XL-665 and TK antibody-cryptate compound were prepared, mixed in a ratio of 1:1 before being added to the 384-well plate, and added to each well at 10 µL per well; • g) the mixture was reacted at room temperature for 1 hour, and then the plate was read; • h) the wells with only substrate, ATP and 1% DMSO added but no kinase were blank control wells, and the wells with only substrate, ATP, 1% DMSO and kinase were positive control wells.
(§4) Readings: The values of 620 nm (cryptate) and 665 nm (XL665) were read with a BioTek Synerg Neo2 microplate reader, the ratio of 665/620 for each well was calculated, and the data were exported.
(§5) Data analysis: IC50 was calculated using GraphPad Prism 7.0 software.
(§6) The IC50 (half-maximal inhibitory concentration) of the compound was obtained using the following nonlinear fitting formula: Y = Bottom + (Top−Bottom)/(1+10^(∧)((LogIC50−X)*HillSlope)) [formula] • X: Log value of the compound concentration • Y: Inhibition rate (% inhibition) • Top: Maximum response • Bottom: Baseline response • HillSlope: Slope of the curve
(§7) The formula for calculating kinase inhibition rate (inhibition rate %) was: [formula]

BTK T474I = target: T2, BTK T474I (Homo sapiens, UniProt Q06187, T474I); assay: Kinase activity inhibition assay (HTRF TK Kit)
T2 construct: purchased SignalChem B10-12HH
From the text: as §1, §2, §3, §4, §5, §6, §7

BTK kinase = target: T3, BTK kinase (Homo sapiens, UniProt Q06187); assay: Kinase activity inhibition assay (HTRF TK Kit)
T3 construct: purchased Invitrogen PV3587
From the text: as §1, §2, §3, §4, §5, §6, §7

EGFR = target: T4, EGFR (Homo sapiens, UniProt P00533); assay: Kinase activity inhibition assay (HTRF TK Kit), selectivity
T4 construct: purchased Carna 08-115
From the text: as §1, §2, §3, §4, §5, §6, §7

ITK = target: T5, ITK (Homo sapiens, UniProt Q08881); assay: as above
T5 construct: purchased Carna 08-181
T5 sequence (Q08881 1-620): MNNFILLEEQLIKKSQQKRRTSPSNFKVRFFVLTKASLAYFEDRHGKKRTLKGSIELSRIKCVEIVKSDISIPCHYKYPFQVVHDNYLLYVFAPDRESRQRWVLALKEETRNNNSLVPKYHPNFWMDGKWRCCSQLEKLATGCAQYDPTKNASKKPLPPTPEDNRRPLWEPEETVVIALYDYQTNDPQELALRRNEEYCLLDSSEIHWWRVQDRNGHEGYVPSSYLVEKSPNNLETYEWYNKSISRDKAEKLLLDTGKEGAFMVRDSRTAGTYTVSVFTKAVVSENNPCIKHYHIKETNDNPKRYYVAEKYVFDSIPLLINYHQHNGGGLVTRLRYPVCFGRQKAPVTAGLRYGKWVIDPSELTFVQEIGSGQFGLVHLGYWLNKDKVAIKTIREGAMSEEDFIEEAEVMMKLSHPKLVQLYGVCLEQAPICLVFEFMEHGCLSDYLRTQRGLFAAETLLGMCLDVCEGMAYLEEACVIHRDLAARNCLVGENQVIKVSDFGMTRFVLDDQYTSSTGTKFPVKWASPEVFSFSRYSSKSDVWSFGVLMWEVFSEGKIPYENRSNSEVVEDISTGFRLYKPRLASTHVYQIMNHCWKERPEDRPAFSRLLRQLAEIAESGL
From the text: as §1, §2, §3, §4, §5, §6, §7

TEC = target: T6, TEC (Homo sapiens, UniProt P42680); assay: as above
T6 construct: purchased Carna 08-182
T6 sequence (P42680 1-631): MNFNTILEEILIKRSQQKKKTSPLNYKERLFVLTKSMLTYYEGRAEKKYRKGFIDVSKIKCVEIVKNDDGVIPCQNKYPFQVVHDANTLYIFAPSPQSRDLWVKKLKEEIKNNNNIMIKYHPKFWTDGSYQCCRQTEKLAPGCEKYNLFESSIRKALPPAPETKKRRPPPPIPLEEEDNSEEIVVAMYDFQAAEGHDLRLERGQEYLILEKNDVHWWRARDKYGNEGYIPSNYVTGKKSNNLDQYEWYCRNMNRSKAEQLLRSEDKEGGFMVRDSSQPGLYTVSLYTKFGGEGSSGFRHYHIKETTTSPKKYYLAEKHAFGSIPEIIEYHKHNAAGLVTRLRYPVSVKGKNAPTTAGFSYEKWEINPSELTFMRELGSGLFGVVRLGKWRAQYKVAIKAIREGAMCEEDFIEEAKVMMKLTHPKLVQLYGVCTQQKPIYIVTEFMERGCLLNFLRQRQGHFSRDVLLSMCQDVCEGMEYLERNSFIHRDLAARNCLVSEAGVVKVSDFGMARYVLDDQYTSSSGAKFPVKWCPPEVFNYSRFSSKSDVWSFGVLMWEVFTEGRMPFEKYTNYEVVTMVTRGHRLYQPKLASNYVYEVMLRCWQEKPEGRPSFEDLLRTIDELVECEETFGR
From the text: as §1, §2, §3, §4, §5, §6, §7

T4 sequence (P00533 669-1210 limits assumed): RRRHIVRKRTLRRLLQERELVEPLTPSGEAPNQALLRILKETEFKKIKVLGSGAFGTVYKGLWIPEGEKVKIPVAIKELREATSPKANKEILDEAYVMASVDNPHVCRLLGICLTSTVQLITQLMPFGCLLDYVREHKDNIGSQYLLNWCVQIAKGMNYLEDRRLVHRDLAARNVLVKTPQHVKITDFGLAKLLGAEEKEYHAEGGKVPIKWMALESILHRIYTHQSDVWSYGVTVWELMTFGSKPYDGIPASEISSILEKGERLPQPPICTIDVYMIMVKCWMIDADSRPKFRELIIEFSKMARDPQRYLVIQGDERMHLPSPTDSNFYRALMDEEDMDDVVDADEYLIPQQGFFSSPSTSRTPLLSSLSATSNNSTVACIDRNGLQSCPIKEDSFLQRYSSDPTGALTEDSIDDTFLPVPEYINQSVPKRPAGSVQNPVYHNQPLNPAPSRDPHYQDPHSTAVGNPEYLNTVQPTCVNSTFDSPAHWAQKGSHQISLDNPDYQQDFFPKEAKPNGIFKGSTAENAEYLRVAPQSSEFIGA
T1 sequence (Q06187 whole entry C481S): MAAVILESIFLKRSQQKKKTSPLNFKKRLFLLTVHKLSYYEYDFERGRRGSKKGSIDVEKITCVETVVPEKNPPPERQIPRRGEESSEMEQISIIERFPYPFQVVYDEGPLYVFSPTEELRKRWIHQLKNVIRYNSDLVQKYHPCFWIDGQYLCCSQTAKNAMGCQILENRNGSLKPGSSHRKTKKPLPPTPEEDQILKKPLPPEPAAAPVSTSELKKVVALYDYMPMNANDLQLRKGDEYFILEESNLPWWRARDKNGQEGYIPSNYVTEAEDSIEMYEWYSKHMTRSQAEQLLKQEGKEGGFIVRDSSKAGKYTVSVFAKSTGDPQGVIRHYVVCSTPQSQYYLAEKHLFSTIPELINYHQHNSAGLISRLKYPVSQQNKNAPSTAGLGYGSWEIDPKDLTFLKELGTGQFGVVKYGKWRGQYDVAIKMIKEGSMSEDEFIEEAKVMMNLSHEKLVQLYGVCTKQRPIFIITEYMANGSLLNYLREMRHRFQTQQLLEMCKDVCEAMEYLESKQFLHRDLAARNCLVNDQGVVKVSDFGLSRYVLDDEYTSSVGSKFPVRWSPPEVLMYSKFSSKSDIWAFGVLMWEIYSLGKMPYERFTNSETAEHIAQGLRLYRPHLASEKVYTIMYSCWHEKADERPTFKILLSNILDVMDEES
T2 sequence (Q06187 whole entry T474I): as the sequence (Q06187 whole entry C481S) above, with T474I, S481C counted along it
T3 sequence (Q06187 whole entry): as the sequence (Q06187 whole entry C481S) above, with S481C counted along it

Structure (SMILES) | IC50 (BTK C481S) [nM] | IC50 (BTK T474I) [nM] | IC50 (BTK kinase) [nM] | IC50 (EGFR) [nM] | IC50 (ITK) [nM] | IC50 (TEC) [nM]
COc1ccc(F)cc1C(=O)NCc1ccc(-c2ncc(-c3ccc(P(C)(C)=O)cn3)c3[nH]nc(N)c23)cc1 [Example 56, N-(4-(3-amino-7-(5-(dimethylphosphoryl)pyridin-2-yl)-1H-pyrazolo[4,3-c]pyridin-4-yl)benzyl)-5-fluoro-2-methoxybenzamide] | 1 to 5 | 5 to 50 | 1 to 5 | 50 to 500 | 50 to 500 | 5 to 50
COc1ccc(F)cc1C(=O)NCc1ccc(-c2ncc(-c3ccc(F)cn3)c3[nH]nc(N)c23)c(F)c1 [Example 82, N-(4-(3-amino-7-(5-fluoropyridin-2-yl)-1H-pyrazolo[4,3-c]pyridin-4-yl)-3-fluorobenzyl)-5-fluoro-2-methoxybenzamide] | 1 to 5 | 50 to 500 | 1 to 5 | > 500 | > 500 | 50 to 500
COc1ccc(F)cc1C(=O)NCc1ccc(-c2nc(C(C)C(F)(F)F)cc3[nH]nc(N)c23)cc1 (single isomer, unassigned) [Example 3, N-(4-(3-amino-6-(1,1,1-trifluoropropan-2-yl)-1H-pyrazolo[4,3-c]pyridin-4-yl)benzyl)-5-fluoro-2-methoxybenzamide] | 1 to 5 | 50 to 500 | 1 to 5 | > 500 | > 500 | 50 to 500
COc1ccc(F)cc1C(=O)NCc1ccc(-c2nc([C@H]3CC[C@H](CO)CC3)cc3[nH]nc(N)c23)cc1 [Example 117, N-(4-(3-amino-6-((1r,4r)-4-(hydroxymethyl)cyclohexyl)-1H-pyrazolo[4,3-c]pyridin-4-yl)benzyl)-5-fluoro-2-methoxybenzamide] | 1 to 5 | 50 to 500 | 1 to 5 | 5 to 50 | > 500 | 50 to 500
COc1ccc(F)cc1C(=O)NCc1ccc(-c2ncc(-c3ccc(CN4CCCCC4)cn3)c3[nH]nc(N)c23)cc1 [Example 66, N-(4-(3-amino-7-(5-(piperidin-1-ylmethyl)pyridin-2-yl)-1H-pyrazolo[4,3-c]pyridin-4-yl)benzyl)-5-fluoro-2-methoxybenzamide] | ≤ 1 | 5 to 50 | ≤ 1 | 5 to 50 | 50 to 500 | 5 to 50
COc1ccc(F)cc1C(=O)NCc1ccc(-c2ncc(-c3ccc(C(C)(C)O)cn3)c3[nH]nc(N)c23)cc1 [Example 65, N-(4-(3-amino-7-(5-(2-hydroxypropan-2-yl)pyridin-2-yl)-1H-pyrazolo[4,3-c]pyridin-4-yl)benzyl)-5-fluoro-2-methoxybenzamide] | 1 to 5 | 1 to 5 | 1 to 5 | 5 to 50 | 50 to 500 | 1 to 5
COc1ccc(F)cc1C(=O)NCc1ccc(-c2ncc(-c3ccc(C(=O)N4CCOCC4)cn3)c3[nH]nc(N)c23)cc1 [Example 52, N-(4-(3-amino-7-(5-(morpholine-4-carbonyl)pyridin-2-yl)-1H-pyrazolo[4,3-c]pyridin-4-yl)benzyl)-5-fluoro-2-methoxybenzamide] | ≤ 1 | 5 to 50 | ≤ 1 | 50 to 500 | 50 to 500 | 5 to 50
COc1ccc(F)cc1C(=O)NCc1ccc(-c2ncc(-c3ncc(F)cn3)c3[nH]nc(N)c23)cc1 [Example 36, N-(4-(3-amino-7-(5-fluoropyrimidin-2-yl)-1H-pyrazolo[4,3-c]pyridin-4-yl)benzyl)-5-fluoro-2-methoxybenzamide] | 1 to 5 | 50 to 500 | 1 to 5 | 50 to 500 | > 500 | 50 to 500
COc1ccc(F)cc1C(=O)NCc1ccc(-c2ncc(-c3ccc(N4CCN(C)C[C@@H]4C)cn3)c3[nH]nc(N)c23)cc1 [Example 74, (S)-N-(-4-(3-amino-7-(5-(2,4-dimethylpiperazin-1-yl)pyridin-2-yl) 1H-pyrazolo[4,3-c]pyridin-4-yl)benzyl)-5-fluoro-2-methoxybenzamide] | 1 to 5 | 5 to 50 | 1 to 5 | 5 to 50 | 50 to 500 | > 500
CCOC(=O)c1cnc2cc(-c3cnc(-c4ccc(CNC(=O)c5cc(F)ccc5OC)cc4)c4c(N)n[nH]c34)nn2c1 [Example 45, ethyl 2-(3-amino-4-(4-((5-fluoro-2-methoxybenzoylamino)methyl)phenyl)-1H-pyrazolo[4,3-c]pyridin-7-yl)pyrazolo[1,5-a]pyrimidine-6-carboxylate] | 5 to 50 | > 500 | 5 to 50 | 50 to 500 | > 500 | 50 to 500
COc1ccc(F)cc1C(=O)NCc1ccc(-c2ncc(-c3ccc(OC(F)(F)F)cn3)c3[nH]nc(N)c23)cc1 [Example 41, N-(4-(3-amino-7-(5-(trifluoromethoxy)pyridin-2-yl)-1H-pyrazolo[4,3-c]pyridin-4-yl)benzyl)-5-fluoro-2-methoxybenzamide] | ≤ 1 | 5 to 50 | 1 to 5 | 50 to 500 | 50 to 500 | 5 to 50

Reference: patent EP4741392A1, “1H-PYRAZOLO[4,3-C]PYRIDINE COMPOUND, AND COMPOSITION THEREOF AND USE THEREOF” (Shenzhen TargetRx Co., Ltd., priority 2023, dated 2025)
